Results as given in the supplement of paper PMC11061612.

How the values were obtained:
[1] = test system: VMRC-LCD (Lung Adenocarcinoma); assay: combination Emax (second highest fraction inhibited in the dose matrix, 72 h); higher = more inhibition; extreme values may be limits of the assay
Outline: (§1)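 After 24 hours at 37°C and 5% CO2 in 1536-well plates, cells in DMEM/F12 or RPMI plus 10% FBS received two-drug dose matrices for 72 hours. Viability came from CellTiter-Glo 2.0 luminescence and was scaled as inhibition, anchored at 0 by vehicle wells and at 1 by blank wells. Combination Emax is taken as the second-highest inhibition in the matrix, and Bliss excess as the observed combination effect less EA + EB − EA·EB, with EA and EB the single-agent effects.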

NB7 (Neuroblastoma) [2] = assay: as above
Outline: as §1

[3] = test system: NCI-N87 (Gastric Carcinoma); assay: as above
Outline: as §1

[4] = test system: SNU-C1 (Colorectal Carcinoma); assay: as above
Outline: as §1

[5] = test system: LC4-1 (B-Lymphoblastic Leukemia); assay: as above
Outline: as §1

GI-1 (Glioblastoma) [6] = assay: as above
Outline: as §1

EW-3 (Ewing's Sarcoma) [7] = assay: as above
Outline: as §1

[8] = test system: OCUM-1 (Gastric Carcinoma); assay: as above
Outline: as §1

[9] = test system: H-EMC-SS (Chondrosarcoma); assay: as above
Outline: as §1

[10] = test system: OCUB-M (Breast Carcinoma); assay: as above
Outline: as §1

[11] = test system: TGBC11TKB (Gastric Carcinoma); assay: as above
Outline: as §1

[12] = test system: SCC-9 (Oral Cavity Carcinoma); assay: as above
Outline: as §1

[13] = test system: JHH-7 (Hepatocellular Carcinoma); assay: as above
Outline: as §1

[14] = test system: KINGS-1 (Low Grade Glioma); assay: as above
Outline: as §1

[15] = test system: HSC-2 (Oral Cavity Carcinoma); assay: as above
Outline: as §1

[16] = test system: VMRC-LCD (Lung Adenocarcinoma); assay: Bliss excess, mean over the matrix (fraction); higher = more synergy
Outline: as §1

NB7 (Neuroblastoma) [17] = assay: as above
Outline: as §1

[18] = test system: NCI-N87 (Gastric Carcinoma); assay: as above
Outline: as §1

[19] = test system: SNU-C1 (Colorectal Carcinoma); assay: as above
Outline: as §1

[20] = test system: LC4-1 (B-Lymphoblastic Leukemia); assay: as above
Outline: as §1

GI-1 (Glioblastoma) [21] = assay: as above
Outline: as §1

EW-3 (Ewing's Sarcoma) [22] = assay: as above
Outline: as §1

[23] = test system: OCUM-1 (Gastric Carcinoma); assay: as above
Outline: as §1

[24] = test system: H-EMC-SS (Chondrosarcoma); assay: as above
Outline: as §1

[25] = test system: OCUB-M (Breast Carcinoma); assay: as above
Outline: as §1

[26] = test system: TGBC11TKB (Gastric Carcinoma); assay: as above
Outline: as §1

[27] = test system: SCC-9 (Oral Cavity Carcinoma); assay: as above
Outline: as §1

[28] = test system: JHH-7 (Hepatocellular Carcinoma); assay: as above
Outline: as §1

[29] = test system: KINGS-1 (Low Grade Glioma); assay: as above
Outline: as §1

[30] = test system: HSC-2 (Oral Cavity Carcinoma); assay: as above
Outline: as §1
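For Bliss excess, mean over the matrix in this document: after 72 h of two-drug dosing.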

Row | Compound | combination Emax [1] | combination Emax (NB7 (Neuroblastoma) [2]) | combination Emax [3] | combination Emax [4] | combination Emax [5] | combination Emax (GI-1 (Glioblastoma) [6]) | combination Emax (EW-3 (Ewing's Sarcoma) [7]) | combination Emax [8] | combination Emax [9] | combination Emax [10] | combination Emax [11] | combination Emax [12] | combination Emax [13] | combination Emax [14] | combination Emax [15] | Bliss excess [16] | Bliss excess (NB7 (Neuroblastoma) [17]) | Bliss excess [18] | Bliss excess [19] | Bliss excess [20] | Bliss excess (GI-1 (Glioblastoma) [21]) | Bliss excess (EW-3 (Ewing's Sarcoma) [22]) | Bliss excess [23] | Bliss excess [24] | Bliss excess [25] | Bliss excess [26] | Bliss excess [27] | Bliss excess [28] | Bliss excess [29] | Bliss excess [30]
1 | N#Cc1cnc(Nc2cc(NC[C@H]3CNCCO3)c(C(F)(F)F)cn2)cn1 [SRA737] + C=CCn1c(=O)c2cnc(Nc3ccc(N4CCN(C)CC4)cc3)nc2n1-c1cccc(C(C)(C)O)n1 [AZD1775] (first compound max 10 µM, partner max 1 µM) | 0.778 | 0.849 | 0.828 | 0.789 | 0.891 | 0.91 | 0.501 | 0.53 | 0.354 | 0.637 | 0.919 | 0.326 | 0.543 | 0.412 | 0.584 | -0.0067 | 0.0949 | 0.0275 | 0.12 | 0.0618 | 0.0907 | 0.0086 | 0.0537 | 0.0311 | 0.102 | 0.0401 | 0.0078 | -0.0263 | 0.0035 | 0.0573
2 | O=C(c1cc(Cc2n[nH]c(=O)c3ccccc23)ccc1F)N1CCN(C(=O)C2CC2)CC1 [Olaparib] + Cc1c2c(nn1C)CSCc1cc(n(C)n1)CSc1cc(c3ccccc3c1)OCCCc1c(C(=O)O)n(C)c3c-2c(Cl)ccc13 [AZD5991] (first compound max 10 µM, 7x7, partner max 1 µM) | 0.111 | 0.595 | 0.203 | 0.362 | 0.955 | 0.51 | 0.869 | 0.0756 | 0.129 | 0.924 | 0.509 | 0.154 | 0.0758 | 0.0927 | 0.88 | -0.0349 | -0.0154 | -0.0285 | -0.0155 | -0.0181 | 0.0065 | -0.0215 | -0.0497 | -0.0401 | -0.0142 | 0.0015 | -0.0478 | -0.0457 | -0.0514 | -0.0082
3 | C[C@@H](Nc1cc(F)cc(F)c1)c1cc(C(=O)N(C)C)cc2c(=O)cc(N3CCOCC3)oc12 [AZD8186] + C1CN(CCC1(C(=O)N[C@@H](CCO)C2=CC=C(C=C2)Cl)N)C3=NC=NC4=C3C=CN4 [AZD5363] (first compound max 10 µM, 7x7, partner max 10 µM) | 0.0947 | 0.864 | 0.629 | 0.586 | 0.398 | 0.751 | 0.239 | 0.513 | 0.448 | 1 | 0.126 | 0.351 | 0.25 | 0.422 | 0.667 | -0.025 | -0.0059 | 0.0125 | -0.0605 | 0.027 | 0.0399 | 0.0017 | -0.0101 | -0.0314 | 0.019 | -0.0235 | -0.0225 | -0.0665 | -0.0307 | -0.0041
4 | CN(CCO)CC[C@H](CSc1ccccc1)Nc1ccc(S(=O)(=O)NC(=O)c2ccc(N3CCC([C@@H](O)c4ccccc4-c4ccc(Cl)cc4)CC3)cc2)cc1S(=O)(=O)C(F)(F)F [AZD4320] + CC(=O)O[C@H]1C(=O)[C@@]2(C)[C@H]([C@H](OC(=O)c3ccccc3)[C@]3(O)C[C@H](OC(=O)[C@H](O)[C@@H](NC(=O)c4ccccc4)c4ccccc4)C(C)=C1C3(C)C)[C@]1(OC(C)=O)CO[C@@H]1C[C@@H]2O [Paclitaxel] (first compound max 1 µM, 7x7, partner max 3 µM) | 0.918 | 0.94 | 0.921 | 0.829 | 1 | 1 | 0.961 | 0.955 | 0.672 | 1 | 0.994 | 0.745 | 0.951 | 0.966 | 1 | 0.0035 | 0.131 | 0.182 | 0.179 | 0.0047 | 0.0374 | 0.0269 | 0.0074 | 0.0785 | 0.0811 | 0.0373 | 0.109 | 0.144 | 0.18 | 0.0087
5 | Cc1c2c(nn1C)CSCc1cc(n(C)n1)CSc1cc(c3ccccc3c1)OCCCc1c(C(=O)O)n(C)c3c-2c(Cl)ccc13 [AZD5991] + CS(=O)(=O)CCNCc1ccc(-c2ccc3ncnc(Nc4ccc(OCc5cccc(F)c5)c(Cl)c4)c3c2)o1 [Lapatinib] (first compound max 1 µM, 7x7, partner max 10 µM) | 0.33 | 0.593 | 0.967 | 0.425 | 0.97 | 0.577 | 0.597 | 0.239 | 0.3 | 1 | 0.839 | 0.984 | 0.348 | 0.215 | 0.998 | 0.0626 | 0.0109 | 0.0077 | -0.0746 | 0.0538 | -0.0104 | -0.028 | -0.0754 | -0.0134 | 0.0617 | 0.0676 | 0.0313 | 0.0061 | -0.0437 | 0.0287
6 | CN(CCO)CC[C@H](CSc1ccccc1)Nc1ccc(S(=O)(=O)NC(=O)c2ccc(N3CCC([C@@H](O)c4ccccc4-c4ccc(Cl)cc4)CC3)cc2)cc1S(=O)(=O)C(F)(F)F [AZD4320] + Nc1ccn([C@@H]2O[C@H](CO)[C@@H](O)C2(F)F)c(=O)n1 [Gemcitabine] (first compound max 1 µM, 7x7, partner max 0.3 µM) | 0.288 | 0.556 | 0.822 | 0.533 | 1 | 0.936 | 0.91 | 0.905 | 0.832 | 0.812 | 0.882 | 0.539 | 0.284 | 0.502 | 1 | -0.0095 | -0.0153 | -0.0058 | -0.0482 | 0.0156 | 0.112 | -0.0522 | 0.0262 | 0.0342 | 0.0471 | 0.0225 | -0.0247 | -0.033 | -0.0068 | 0.0613
7 | Cc1cc2ncnn2cc1Nc1ncc2c(n1)n(C1CCOCC1)c(=O)n2C [AZD7648] + COc1cc([C@@H]2c3cc4c(cc3[C@@H](O[C@@H]3O[C@@H]5CO[C@@H](C)O[C@H]5[C@H](O)[C@H]3O)[C@H]3COC(=O)[C@H]23)OCO4)cc(OC)c1O [Etoposide] (first compound max 10 µM, 7x7, partner max 10 µM) | 0.555 | 0.909 | 0.697 | 0.275 | 1 | 0.907 | 0.855 | 0.557 | 0.524 | 0.885 | 0.0573 | 0.481 | 0.642 | 0.516 | 0.866 | 0.171 | 0.0544 | -0.0062 | -0.0254 | 0.0856 | 0.0946 | 0.0762 | 0.0899 | 0.0506 | 0.0176 | -0.0517 | 0.006 | 0.0547 | 0.061 | 0.128
8 | C[C@@H](Oc1cc(-c2cnn(C3CCNCC3)c2)cnc1N)c1c(Cl)ccc(F)c1Cl [Crizotinib] + CC1=C(C(=CC=C1)Cl)NC(=O)C2=CN=C(S2)NC3=CC(=NC(=N3)C)N4CCN(CC4)CCO [Dasatinib] (first compound max 10 µM, 7x7, partner max 2 µM) | 0.657 | 0.689 | 0.607 | 0.683 | 0.866 | 0.969 | 0.571 | 0.354 | 0.402 | 0.391 | 0.176 | 0.966 | 0.422 | 0.788 | 0.923 | -0.0545 | 0.0924 | -0.0251 | -0.056 | -0.0147 | 0.132 | -0.0728 | -0.0693 | -0.004 | -0.0666 | -0.0343 | 0.0429 | -0.0142 | 0.0575 | -0.0097
9 | N#Cc1cnc(Nc2cc(NC[C@H]3CNCCO3)c(C(F)(F)F)cn2)cn1 [SRA737] + Nc1ccn([C@@H]2O[C@H](CO)[C@@H](O)C2(F)F)c(=O)n1 [Gemcitabine] (first compound max 10 µM, 7x7, partner max 0.3 µM) | 0.773 | 0.765 | 0.702 | 0.712 | 0.976 | 0.916 | 0.902 | 0.709 | 0.542 | 0.951 | 0.942 | 0.401 | 0.569 | 0.29 | 0.959 | 0.0934 | 0.0519 | -0.0415 | -0.0175 | 0.113 | 0.0455 | -0.0521 | -0.022 | -0.0056 | 0.0085 | 0.0075 | 0.0211 | 0.0691 | -0.0208 | 0.059
